In patent publication US10457654B2 (GENENTECH, INC., priority 2017, dated 2019):
Counter-ions that a name gives are not always drawn.

Columns and labels:
[1] = molecular target: T1, hNav1.7 (Homo sapiens (Human), UniProt Q15858); experiment: Tritiated compound binding to membranes from cells expressing hNav1.7 and the β1 subunit, modified protocol (LBA, Ex. 243B); settings: 300 pM [3H]compound, room temperature, read-out: Nav1.7 LBA (Ex. 243B) IC50
Target sequence in this assay (Q15858 whole entry, looked up): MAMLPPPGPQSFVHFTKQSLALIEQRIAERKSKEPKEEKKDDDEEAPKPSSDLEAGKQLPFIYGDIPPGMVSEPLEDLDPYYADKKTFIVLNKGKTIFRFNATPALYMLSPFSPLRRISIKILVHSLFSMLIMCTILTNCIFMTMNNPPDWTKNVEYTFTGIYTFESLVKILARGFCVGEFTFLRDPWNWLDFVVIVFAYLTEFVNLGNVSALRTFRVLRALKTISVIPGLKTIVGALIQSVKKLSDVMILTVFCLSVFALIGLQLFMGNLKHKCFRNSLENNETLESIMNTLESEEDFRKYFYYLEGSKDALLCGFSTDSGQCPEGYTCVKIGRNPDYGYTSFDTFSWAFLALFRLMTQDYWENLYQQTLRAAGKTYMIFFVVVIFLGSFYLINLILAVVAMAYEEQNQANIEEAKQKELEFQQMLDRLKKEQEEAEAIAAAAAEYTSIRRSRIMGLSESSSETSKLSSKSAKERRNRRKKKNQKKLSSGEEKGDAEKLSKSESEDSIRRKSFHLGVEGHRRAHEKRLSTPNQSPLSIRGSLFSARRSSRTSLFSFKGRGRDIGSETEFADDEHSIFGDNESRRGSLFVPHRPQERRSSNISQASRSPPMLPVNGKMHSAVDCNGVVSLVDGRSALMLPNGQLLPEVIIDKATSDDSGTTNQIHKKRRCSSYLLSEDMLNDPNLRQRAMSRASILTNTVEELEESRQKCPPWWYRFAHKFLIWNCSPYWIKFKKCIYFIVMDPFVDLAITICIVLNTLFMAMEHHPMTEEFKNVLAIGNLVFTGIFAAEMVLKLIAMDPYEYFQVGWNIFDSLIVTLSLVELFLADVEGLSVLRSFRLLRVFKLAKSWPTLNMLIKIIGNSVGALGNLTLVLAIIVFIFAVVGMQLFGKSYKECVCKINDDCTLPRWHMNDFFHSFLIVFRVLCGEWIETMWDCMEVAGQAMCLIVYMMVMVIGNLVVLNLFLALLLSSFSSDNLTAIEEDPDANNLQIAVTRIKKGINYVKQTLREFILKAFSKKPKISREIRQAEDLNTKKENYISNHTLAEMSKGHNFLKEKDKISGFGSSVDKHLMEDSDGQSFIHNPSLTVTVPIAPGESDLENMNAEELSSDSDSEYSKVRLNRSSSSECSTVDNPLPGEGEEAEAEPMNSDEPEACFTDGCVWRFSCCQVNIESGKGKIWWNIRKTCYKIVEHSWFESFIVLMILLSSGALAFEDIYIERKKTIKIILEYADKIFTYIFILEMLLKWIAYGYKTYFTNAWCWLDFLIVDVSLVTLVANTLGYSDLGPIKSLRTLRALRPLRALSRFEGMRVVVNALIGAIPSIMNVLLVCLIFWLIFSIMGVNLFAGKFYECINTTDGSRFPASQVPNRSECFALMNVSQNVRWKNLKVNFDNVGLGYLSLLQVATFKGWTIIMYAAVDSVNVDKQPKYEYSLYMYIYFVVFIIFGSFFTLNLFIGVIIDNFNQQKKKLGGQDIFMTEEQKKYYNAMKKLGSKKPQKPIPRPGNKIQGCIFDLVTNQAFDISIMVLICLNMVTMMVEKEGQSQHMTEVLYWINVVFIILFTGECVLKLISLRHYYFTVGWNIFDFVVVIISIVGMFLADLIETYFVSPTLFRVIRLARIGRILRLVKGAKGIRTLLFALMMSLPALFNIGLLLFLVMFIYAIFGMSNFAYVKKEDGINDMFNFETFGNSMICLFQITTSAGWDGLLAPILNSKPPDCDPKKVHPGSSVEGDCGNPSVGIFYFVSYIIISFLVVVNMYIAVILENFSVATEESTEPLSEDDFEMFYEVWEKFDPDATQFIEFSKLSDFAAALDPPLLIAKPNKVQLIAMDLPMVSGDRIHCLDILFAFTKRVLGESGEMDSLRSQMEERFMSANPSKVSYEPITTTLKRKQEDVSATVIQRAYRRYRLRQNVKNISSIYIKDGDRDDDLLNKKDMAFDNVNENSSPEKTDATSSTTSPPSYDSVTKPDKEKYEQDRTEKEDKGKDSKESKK
Target sequence in this assay (Q07699 whole entry partner, looked up): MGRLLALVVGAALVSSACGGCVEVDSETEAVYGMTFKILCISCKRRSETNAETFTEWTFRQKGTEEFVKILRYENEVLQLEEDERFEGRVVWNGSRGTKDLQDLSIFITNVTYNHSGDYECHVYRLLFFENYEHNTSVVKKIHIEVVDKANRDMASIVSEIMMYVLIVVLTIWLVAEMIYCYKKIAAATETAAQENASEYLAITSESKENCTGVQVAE

[2] = molecular target: T1, hNav1.7; experiment: Patch voltage clamp electrophysiology assay (EP), Syncropatch 384PE, CHO cells expressing Nav1.7; type: cell-based; settings: read-out: EP_SP hNav1.7 (Ex. 243B) IC50
Description: Electrophysiological Assay (EP) (In Vitro Assay)
The following voltage clamp electrophysiology studies were performed on representative compounds using cells heterologously expressing Nav1.7 or Nav1.5 channels. cDNAs for Nav1.7 (NM_002977) and Nav1.5 (AC137587) were stably expressed in Chinese Hamstr Ovary (CHO) cells and CHL (Chinese Hamster Lung) cells respectively. […] Internal solution consists of (in mM): 110 […], 10 […], 20 EGTA, and 10 Hepes (pH adjusted to 7.2); and external solution contains (in mM): 60 NMDG, 80 NaCl, 4 KCl, 1 MgCl2, 2 CaCl2, 2 D-Glucose monohydrate, 10 Hepes (pH adjusted to 7.4 with NaOH).
The chip is moved into the measuring head and the instrument primes the chip with external and internal solutions. […] cells are added to the chip from a cell hotel, and a negative pressure of −50 mBar is applied to form a seal. Following treatment with seal enhancer solution and wash-off with external solution, negative pressure of −250 mbar is applied for 1 second to achieve the whole-cell configuration, followed by three washing steps in external solution. 20 μl of compounds is added to 40 μl in each well (1:3 dilution of compounds), and after mixing, 20 μl is removed so the volume is retained at 40 μl.
For voltage protocol, an holding potential of −50 mV is applied during the whole experiment. A depolarizing step is applied to −10 mV for 10 ms, followed by a hyperpolarization step to −150 mV for 20 ms to allow channel recovery from inactivation. A second depolarizing step is applied from −150 mV to −10 mV for 10 ms, where currents were measured to derive blocking effects of compounds. Inhibition is determined based on 7.5 min of compound incubation.
Target sequence in this assay (Q15858 other isoform, or with tags, fused parts or gaps): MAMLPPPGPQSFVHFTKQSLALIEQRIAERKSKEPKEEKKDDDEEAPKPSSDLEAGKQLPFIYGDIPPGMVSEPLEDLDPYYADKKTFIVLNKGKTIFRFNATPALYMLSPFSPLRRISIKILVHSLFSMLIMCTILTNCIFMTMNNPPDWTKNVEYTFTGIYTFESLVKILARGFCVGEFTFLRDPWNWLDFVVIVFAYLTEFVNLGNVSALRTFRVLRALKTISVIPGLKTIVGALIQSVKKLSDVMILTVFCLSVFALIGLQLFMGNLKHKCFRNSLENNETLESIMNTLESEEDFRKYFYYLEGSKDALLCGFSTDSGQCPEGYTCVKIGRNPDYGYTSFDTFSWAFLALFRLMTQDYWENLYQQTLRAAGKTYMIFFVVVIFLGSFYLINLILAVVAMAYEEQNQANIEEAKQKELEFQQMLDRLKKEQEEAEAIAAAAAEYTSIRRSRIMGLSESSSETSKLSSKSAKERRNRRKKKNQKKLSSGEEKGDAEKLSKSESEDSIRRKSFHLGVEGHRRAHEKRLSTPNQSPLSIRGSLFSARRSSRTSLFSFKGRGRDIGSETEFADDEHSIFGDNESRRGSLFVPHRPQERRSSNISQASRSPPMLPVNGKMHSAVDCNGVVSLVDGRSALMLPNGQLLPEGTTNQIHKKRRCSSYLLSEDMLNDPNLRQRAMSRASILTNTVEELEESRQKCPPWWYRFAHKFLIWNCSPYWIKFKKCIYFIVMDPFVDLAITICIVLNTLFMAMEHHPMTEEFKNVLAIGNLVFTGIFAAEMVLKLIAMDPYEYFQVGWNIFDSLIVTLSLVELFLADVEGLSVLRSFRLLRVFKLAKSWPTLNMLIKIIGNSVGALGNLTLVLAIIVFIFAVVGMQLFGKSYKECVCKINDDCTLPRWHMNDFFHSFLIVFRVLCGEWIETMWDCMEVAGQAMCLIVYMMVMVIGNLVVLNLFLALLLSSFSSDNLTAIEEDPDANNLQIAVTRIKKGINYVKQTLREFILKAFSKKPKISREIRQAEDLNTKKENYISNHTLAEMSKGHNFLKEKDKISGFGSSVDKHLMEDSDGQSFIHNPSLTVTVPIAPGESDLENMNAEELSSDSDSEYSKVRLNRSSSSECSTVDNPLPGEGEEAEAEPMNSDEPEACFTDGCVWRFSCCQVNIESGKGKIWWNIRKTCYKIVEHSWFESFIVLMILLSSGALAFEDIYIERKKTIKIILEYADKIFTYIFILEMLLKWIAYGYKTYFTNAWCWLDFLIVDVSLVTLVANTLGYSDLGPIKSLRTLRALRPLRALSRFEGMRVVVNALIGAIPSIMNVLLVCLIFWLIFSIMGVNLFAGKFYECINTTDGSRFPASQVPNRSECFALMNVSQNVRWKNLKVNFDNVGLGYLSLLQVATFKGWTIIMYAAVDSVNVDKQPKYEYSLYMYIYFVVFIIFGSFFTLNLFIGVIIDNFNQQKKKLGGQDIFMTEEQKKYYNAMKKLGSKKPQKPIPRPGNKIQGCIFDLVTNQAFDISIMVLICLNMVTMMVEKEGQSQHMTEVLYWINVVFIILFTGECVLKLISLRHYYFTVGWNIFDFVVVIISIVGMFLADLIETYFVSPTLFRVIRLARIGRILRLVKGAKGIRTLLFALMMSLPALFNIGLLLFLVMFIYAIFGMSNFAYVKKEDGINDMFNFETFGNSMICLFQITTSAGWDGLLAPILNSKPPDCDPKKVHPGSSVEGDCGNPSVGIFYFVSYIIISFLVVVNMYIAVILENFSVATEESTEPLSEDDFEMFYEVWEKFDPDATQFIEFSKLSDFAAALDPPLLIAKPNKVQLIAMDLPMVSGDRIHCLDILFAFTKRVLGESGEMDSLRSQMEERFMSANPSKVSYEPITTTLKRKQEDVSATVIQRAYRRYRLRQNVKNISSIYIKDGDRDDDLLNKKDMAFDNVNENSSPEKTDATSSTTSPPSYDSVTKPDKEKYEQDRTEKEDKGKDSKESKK

[3] = holding potential -50 mV, […] compound incubation

Work on `CN(c1cnn(C)c1)[C@H]1CCCC[C@@H]1Nc1cc(F)c(S(=O)(=O)Nc2nccs2)cc1Cl` [Example 140, 5-chloro-2-fluoro-4-(((1S,2S)-2-(methyl(1-methyl-1H-pyrazol-4-yl)amino)cyclohexyl)amino)-N-(thiazol-2-yl)benzenesulfonamide] yielded an IC50 [1] of 0.17 µM and an IC50 [2, 3] of 0.0132 µM.

In the case of `CN(C)[C@H]1CCC(F)C[C@@H]1Nc1cc(F)c(S(=O)(=O)Nc2nccs2)cc1Cl` (stereo partly drawn) [Example 191, 5-chloro-4-(((1S,2S)-2-(dimethylamino)-5-fluorocyclohexyl)amino)-2-fluoro-N-(thiazol-2-yl)benzenesulfonamide formate], the IC50 [1] is reported as 0.777 µM and the IC50 [2, 3] is reported as 0.0394 µM.

Molecule `CN(C)[C@H]1CCCC[C@@H]1Oc1cc(F)c(S(=O)(=O)Nc2cccc(F)n2)cc1C1CC1` [Example 114, 5-Cyclopropyl-4-(((1S,2S)-2-(dimethylamino)cyclohexyl)oxy)-2-fluoro-N-(6-fluoropyridin-2-yl)benzenesulfonamide formate] has an IC50 [1] of 0.264 µM and an IC50 [2, 3] of 0.0331 µM.

Molecule `CN(C)[C@H]1CCC(c2ccccc2F)C[C@@H]1Nc1cc(F)c(S(=O)(=O)Nc2nccs2)cc1Cl` (stereo in doubt) [Example 174, 5-chloro-4-(((1S,2S,5S)-2-(dimethylamino)-5-(2-fluorophenyl)cyclohexyl)amino)-2-fluoro-N-(thiazol-2-yl)benzenesulfonamide] has an IC50 [1] of 0.357 µM and an IC50 [2, 3] of 0.0502 µM.

`CN(C)[C@@H]1CC2C(C[C@H]1Nc1cc(F)c(S(=O)(=O)Nc3nccs3)cc1Cl)C2(F)F` (stereo in doubt) [Example 208, 5-Chloro-4-(((1R,3R,4R,6S)-4-(dimethylamino)-7,7-difluorobicyclo[4.1.0]heptan-3-yl)amino)-2-fluoro-N-(thiazol-2-yl)benzenesulfonamide] was tested, and the IC50 [1] was 0.0467 µM and the IC50 [2, 3] was 0.00612 µM.

In the case of `O=S(=O)(Nc1nccs1)c1cc(Cl)c(N[C@H]2CCCC[C@@H]2N2CCC[C@H](CO)C2)cc1F` [Example 168, 5-chloro-2-fluoro-4-(((1S,2S)-2-((S)-3-(hydroxymethyl)piperidin-1-yl)cyclohexyl)amino)-N-(thiazol-2-yl)benzenesulfonamide formate], the IC50 [1] is reported as 0.04 µM and the IC50 [2, 3] is reported as 0.00516 µM.

For `O=S(=O)(Nc1nccs1)c1cc(Cl)c(N[C@H]2CCCC[C@@H]2N2CCC[C@H]2CO)cc1F` [Example 134, 5-chloro-2-fluoro-4-(((1S,2S)-2-((S)-2-(hydroxymethyl)pyrrolidin-1-yl)cyclohexyl)amino)-N-(thiazol-2-yl)benzenesulfonamide], the IC50 [1] was 0.279 µM and the IC50 [2, 3] was 0.0186 µM.

`N#C[C@H]1CCCN([C@H]2CCCC[C@@H]2Nc2cc(F)c(S(=O)(=O)Nc3nccs3)cc2Cl)C1` [Example 177, 5-chloro-4-(((1S,2S)-2-((S)-3-cyanopiperidin-1-yl)cyclohexyl)amino)-2-fluoro-N-(thiazol-2-yl)benzenesulfonamide] was tested, and the IC50 [1] was 0.0609 µM and the IC50 [2, 3] was 0.00291 µM.

`O=S(=O)(Nc1nccs1)c1cc(Cl)c(N[C@H]2CCCC[C@@H]2N2CC3CC3C2)cc1F` (stereo partly drawn) [Example 160, 4-(((1S,2S)-2-(3-azabicyclo[3.1.0]hexan-3-yl)cyclohexyl)amino)-5-chloro-2-fluoro-N-(thiazol-2-yl)benzenesulfonamide] was tested, and the IC50 [1] was 0.0203 µM and the IC50 [2] was 0.00227 µM.

Work on `CN(C)[C@H]1C[C@@H](c2cccc(C(F)(F)F)c2)CC[C@@H]1Nc1ccc(S(=O)(=O)Nc2ccncn2)c(F)c1` [Example 237, 4-(((1S,2S,4S)-2-(Dimethylamino)-4-(3-(trifluoromethyl)phenyl)cyclohexyl)amino)-2-fluoro-N-(pyrimidin-4-yl)benzenesulfonamide formate] yielded an IC50 [1] of 0.00243 µM and an IC50 [2, 3] of 0.00107 µM.

For `CN(C)[C@H]1CCC(c2ccccc2F)C[C@@H]1Nc1cc(F)c(S(=O)(=O)Nc2nccs2)cc1Cl` (stereo in doubt) [Example 173, 5-chloro-4-(((1S,2S,5R)-2-(dimethylamino)-5-(2-fluorophenyl)cyclohexyl)amino)-2-fluoro-N-(thiazol-2-yl)benzenesulfonamide], the IC50 [1] was 0.0177 µM and the IC50 [2, 3] was 0.0026 µM.

Work on `CN(C)[C@H]1C[C@@H](c2cccc(C(F)(F)F)c2)CC[C@@H]1Nc1cc(F)c(S(=O)(=O)Nc2ccncn2)cc1O` [Example 240, 4-(((1S,2S,4S)-2-(Dimethylamino)-4-(3-(trifluoromethyl)phenyl)cyclohexyl)amino)-2-fluoro-5-hydroxy-N-(pyrimidin-4-yl)benzenesulfonamide formate] yielded an IC50 [1] of 0.015 µM and an IC50 [2, 3] of 0.0029 µM.

For `CN(C)[C@@H]1CC2C(C[C@H]1Nc1cc(F)c(S(=O)(=O)Nc3nccs3)cc1Cl)C2(F)F` (stereo in doubt) [Example 210, 5-Chloro-4-(((1S,3R,4R,6R)-4-(dimethylamino)-7,7-difluorobicyclo[4.1.0]heptan-3-yl)amino)-2-fluoro-N-(thiazol-2-yl)benzenesulfonamide], the IC50 [1] was 2 µM and the IC50 [2, 3] was 0.415 µM.

In the case of `CN(CCCO)[C@H]1CCCC[C@@H]1Nc1cc(F)c(S(=O)(=O)Nc2cccc(F)n2)cc1Cl` [Example 122, 5-chloro-2-fluoro-N-(6-fluoropyridin-2-yl)-4-(((1S,2S)-2-((3-hydroxypropyl)(methyl)amino)cyclohexyl)amino)benzenesulfonamide], the IC50 [1] is reported as 0.205 µM and the IC50 [2, 3] is reported as 0.0336 µM.

With `CN(CCO)[C@H]1CCCC[C@@H]1Nc1cc(F)c(S(=O)(=O)Nc2cccc(F)n2)cc1C1CC1` [Example 128, 5-Cyclopropyl-2-fluoro-N-(6-fluoropyridin-2-yl)-4-(((1S,2S)-2-((2-hydroxyethyl)(methyl)amino)cyclohexyl)amino)benzenesulfonamide formate] the IC50 [1] was 0.0228 µM and the IC50 [2, 3] was 0.00956 µM.

In the case of `CN(CCO)[C@H]1C[C@@H](C(F)(F)F)CC[C@@H]1Nc1cc(F)c(S(=O)(=O)Nc2nccs2)cc1Cl` [Example 138, 5-chloro-2-fluoro-4-(((1S,2S,4S)-2-((2-hydroxyethyl)(methyl)amino)-4-(trifluoromethyl)cyclohexyl)amino)-N-(thiazol-2-yl)benzenesulfonamide], the IC50 [1] is reported as 0.00943 µM and the IC50 [2, 3] is reported as 0.00321 µM.

For `O=S(=O)(Nc1ccncn1)c1cc(Cl)c(N[C@@H]2CCCC[C@H]2N2CC3CC3C2)cc1F` (stereo partly drawn) [Example 152, 4-(((1R,2R)-2-(3-azabicyclo[3.1.0]hexan-3-yl)cyclohexyl)amino)-5-chloro-2-fluoro-N-(pyrimidin-4-yl)benzenesulfonamide], the IC50 [1] was 2 µM and the IC50 [2, 3] was 1.68 µM.

In the case of `O=S(=O)(Nc1cccc(F)n1)c1cc(Cl)c(N[C@@H]2CCCC[C@H]2N2C[C@@H]3[C@@H](CO)[C@@H]3C2)cc1F` [Example 184], the IC50 [1] is reported as 2 µM and the IC50 [2, 3] is reported as 4.96 µM.

With `CN(C)[C@H]1C[C@H](c2cccc(C(F)(F)F)c2)CC[C@@H]1Nc1cc(F)c(S(=O)(=O)Nc2ccon2)cc1Cl` [Example 229, 5-chloro-4-(((1S,2S,4R)-2-(dimethylamino)-4-(3-(trifluoromethyl)phenyl)cyclohexyl)amino)-2-fluoro-N-(isoxazol-3-yl)benzenesulfonamide] the IC50 [1] was 0.055 µM and the IC50 [2, 3] was 0.00838 µM.

Molecule `CN(C)[C@H]1C[C@@H](c2cccc(C(F)(F)F)c2)CC[C@@H]1Nc1cc(F)c(S(=O)(=O)Nc2ccncn2)cc1C1CCC1` [Example 236, 5-cyclobutyl-4-(((1S,2S,4S)-2-(dimethylamino)-4-(3-(trifluoromethyl)phenyl)cyclohexyl)amino)-2-fluoro-N-(pyrimidin-4-yl)benzenesulfonamide] has an IC50 [1] of 0.000593 µM and an IC50 [2, 3] of 0.0016 µM.

`CN(C)[C@@H]1Cc2ccccc2C[C@H]1Nc1cc(F)c(S(=O)(=O)Nc2nccs2)cc1Cl` [Example 164, 5-Chloro-4-(((2R,3R)-3-(dimethylamino)-1,2,3,4-tetrahydronaphthalen-2-yl)amino)-2-fluoro-N-(thiazol-2-yl)benzenesulfonamide] gave an IC50 [1] of 0.0534 µM and an IC50 [2, 3] of 0.00743 µM.

`CN(CC(O)CF)[C@H]1CCCC[C@@H]1Nc1cc(F)c(S(=O)(=O)Nc2nccs2)cc1Cl` (single isomer, unassigned) [Example 118] gave an IC50 [1] of 0.242 µM and an IC50 [2, 3] of 0.00851 µM.

`CN(CC(C)(C)O)[C@H]1CCCC[C@@H]1Nc1cc(F)c(S(=O)(=O)Nc2nccs2)cc1Cl` [Example 116, 5-Chloro-2-fluoro-4-(((1S,2S)-2-((2-hydroxy-2-methylpropyl)(methyl)amino)cyclohexyl)amino)-N-(thiazol-2-yl)benzenesulfonamide formate] showed an IC50 [1] of 0.307 µM and an IC50 [2, 3] of 0.0182 µM.

For `N#C[C@@H]1CCN([C@H]2CCCC[C@@H]2Nc2cc(F)c(S(=O)(=O)Nc3nccs3)cc2Cl)C1` [Example 161, 5-Chloro-4-(((1S,2S)-2-((R)-3-cyanopyrrolidin-1-yl)cyclohexyl)amino)-2-fluoro-N-(thiazol-2-yl)benzenesulfonamide formate], the IC50 [1] was 0.187 µM and the IC50 [2, 3] was 0.00303 µM.
